# Test results taken from patent US12344623B2, “Thiazolopyridine derivatives as adenosine receptor antagonists” (Merck Patent GmbH, priority 2019, dated 2025).
# Assays:
# Type in all cases: cell-based
# [1] = target: T1, human A3 receptor (Homo sapiens, UniProt P0DMS8); assay: Functional A3 receptor activity, recombinant CHO cells, cAMP (HTRF), forskolin, agonist IB-MECA; conditions: recombinant CHO cells, forskolin, agonist IB-MECA; read-out: Functional A3 receptor activity, CHO, cAMP, IC50
# T1 construct: expressed in transfected cells; host or cells: CHO
# T1 sequence (P0DMS8 1-318): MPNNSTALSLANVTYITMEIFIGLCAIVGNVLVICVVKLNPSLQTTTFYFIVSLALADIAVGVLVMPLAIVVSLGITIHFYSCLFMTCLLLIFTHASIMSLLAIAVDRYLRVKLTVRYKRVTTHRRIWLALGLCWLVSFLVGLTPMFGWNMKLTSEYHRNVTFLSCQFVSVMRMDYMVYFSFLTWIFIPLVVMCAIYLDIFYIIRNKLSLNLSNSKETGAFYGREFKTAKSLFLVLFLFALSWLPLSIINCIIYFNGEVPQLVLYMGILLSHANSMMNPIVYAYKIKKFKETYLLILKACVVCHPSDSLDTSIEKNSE
# Description: (§1) The functional activities of human A2A, A2B, A1 and A3 receptors were determined by quantification of cAMP, being the second messenger for adenosine receptors.
# (§2) For human A1 and A3 receptors, recombinant CHO cells, expressing either A1 or A3-receptor, were used. As both receptors couple to Gi proteins, the assay protocol was adapted:
# (§3) Cells were seeded into 384-well plates, forskolin, test compounds and agonists (CPA for A1- and IB-MECA for A3-receptor) were added. After 30 min incubation, HTRF reagents (cAMP dynamic 2, Cis Bio) were added and the cellular cAMP levels were determined using the ENVISION (Perkin Elmer) plate reader. Obtained raw data were normalized against the inhibitor control and the neural control (DMSO) and the normalized data were fitted using GeneData software.
# [2] = target: human A2A receptor (Homo sapiens, UniProt P29274); assay: Functional A2A receptor activity, recombinant HEK293 cells, cAMP (HTRF), agonist NECA; parameters: expressed in transfected cells; host or cells: HEK293; conditions: read-out: Functional A2A receptor activity, HEK293, cAMP, IC50
# Sequence of human A2A receptor (P29274 whole entry): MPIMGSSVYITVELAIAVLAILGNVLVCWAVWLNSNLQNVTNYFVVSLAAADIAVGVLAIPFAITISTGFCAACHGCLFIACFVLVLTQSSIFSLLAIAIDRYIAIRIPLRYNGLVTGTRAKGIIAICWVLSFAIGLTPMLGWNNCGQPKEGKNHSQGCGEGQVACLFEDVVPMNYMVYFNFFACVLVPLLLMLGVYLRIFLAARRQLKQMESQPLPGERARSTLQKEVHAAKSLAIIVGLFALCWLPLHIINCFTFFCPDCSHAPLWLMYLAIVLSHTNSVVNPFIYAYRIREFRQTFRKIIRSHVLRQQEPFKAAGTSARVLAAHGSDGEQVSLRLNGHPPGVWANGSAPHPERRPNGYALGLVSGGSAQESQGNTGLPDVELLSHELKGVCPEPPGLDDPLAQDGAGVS
# Description: as §1, §3
# [3] = target: T2, human A2B receptor (Homo sapiens, UniProt P29275); assay: Functional A2B receptor activity, recombinant HEK293 cells, cAMP (HTRF), agonist NECA; conditions: read-out: Functional A2B receptor activity, HEK293, cAMP, IC50
# T2 construct: expressed in transfected cells; host or cells: HEK293
# T2 sequence (P29275 1-332): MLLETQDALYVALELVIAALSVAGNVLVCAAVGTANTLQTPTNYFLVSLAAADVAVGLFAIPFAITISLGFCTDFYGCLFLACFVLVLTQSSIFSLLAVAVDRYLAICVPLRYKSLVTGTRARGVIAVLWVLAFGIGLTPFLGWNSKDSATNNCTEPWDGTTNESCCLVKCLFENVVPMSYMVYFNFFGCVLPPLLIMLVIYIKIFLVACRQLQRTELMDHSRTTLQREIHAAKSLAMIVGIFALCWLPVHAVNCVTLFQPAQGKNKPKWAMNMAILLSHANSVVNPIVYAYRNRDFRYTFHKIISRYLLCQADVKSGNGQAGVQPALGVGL
# Description: as §1, §3
# [4] = target: T3, human A1 receptor (Homo sapiens, UniProt P30542); assay: Functional A1 receptor activity, recombinant CHO cells, cAMP (HTRF), forskolin, agonist CPA; conditions: recombinant CHO cells, forskolin, agonist CPA; read-out: Functional A1 receptor activity, CHO, cAMP, IC50
# T3 construct: expressed in transfected cells; host or cells: CHO
# T3 sequence (P30542 1-326): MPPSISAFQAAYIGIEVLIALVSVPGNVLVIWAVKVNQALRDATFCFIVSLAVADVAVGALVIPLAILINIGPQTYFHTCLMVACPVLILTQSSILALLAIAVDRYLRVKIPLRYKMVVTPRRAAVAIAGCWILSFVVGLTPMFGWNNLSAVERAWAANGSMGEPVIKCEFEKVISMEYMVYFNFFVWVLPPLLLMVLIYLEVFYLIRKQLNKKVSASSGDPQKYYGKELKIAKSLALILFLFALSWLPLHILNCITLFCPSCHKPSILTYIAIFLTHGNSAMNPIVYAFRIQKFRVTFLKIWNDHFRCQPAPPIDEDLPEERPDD
# Description: as §1, §2, §3
SMILES,IC50 [1],IC50 [2],IC50 [3],IC50 [4]
"COCCNc1ncc(C(=O)Nc2nc3c(OC)ncc(C4=CCOCC4)c3s2)s1 [Compound 81, N-[7-(3,6-dihydro-2H-pyran-4-yl)-4-methoxy-[1,3]thiazolo[4,5-c]pyridin-2-yl]-2-[(2-methoxyethyl)amino]-1,3-thiazole-5-carboxamide]",> 1000 nM,< 10 nM,< 10 nM,< 1000 nM
"COc1ncc(C2=CCOCC2)c2sc(NC(=O)c3ccc(Cn4ccnc4)cc3)nc12 [Compound 82, N-[7-(3,6-dihydro-2H-pyran-4-yl)-4-methoxy-[1,3]thiazolo[4,5-c]pyridin-2-yl]-4-[(1H-imidazol-1-yl)methyl]benzamide]",> 1000 nM,< 10 nM,< 10 nM,< 100 nM
"COc1ncc(C2=CCOCC2)c2sc(NC(=O)c3ccc([C@@H](C)NC(C)=O)cc3)nc12 [Compound 83, N-[7-(3,6-dihydro-2H-pyran-4-yl)-4-methoxy-[1,3]thiazolo[4,5-c]pyridin-2-yl]-4-[(1R)-1-acetamidoethyl]benzamide]",> 1000 nM,< 10 nM,< 10 nM,< 1000 nM
"COc1ncc(-c2cnn(CC3CCCCO3)c2)c2sc(NC(=O)N3CCC4(CCOCC4)C3)nc12 (stereo not shown) [Compound 84, 8-Oxa-2-aza-spiro[4.5]decane-2-carboxylic acid {4-methoxy-7-[1-(tetrahydro-pyran-2-ylmethyl)-1H-pyrazol-4-yl]-thiazolo[4,5-c]pyridin-2-yl}-amide]",> 1000 nM,< 10 nM,< 100 nM,< 100 nM
"COc1ncc(C2=CCOCC2)c2sc(NC(=O)N3CCC(N4C(=O)C=CC4=O)CC3)nc12 [Compound 88, N-[7-(3,6-dihydro-2H-pyran-4-yl)-4-methoxy-[1,3]thiazolo[4,5-c]pyridin-2-yl]-4-(2,5-dioxo-2,5-dihydro-1H-pyrrol-1-yl)piperidine-1-carboxamide]",> 1000 nM,< 10 nM,< 100 nM,> 1000 nM
"COc1ncc(C2=CCOCC2)c2sc(NC(=O)Nc3ccc(NC(=O)CN(C)C)cc3)nc12 [Compound 90, N-[4-({[7-(3,6-dihydro-2H-pyran-4-yl)-4-methoxy-[1,3]thiazolo[4,5-c]pyridin-2-yl]carbamoyl}amino)phenyl]-2-(dimethylamino)acetamide]",> 1000 nM,< 10 nM,< 10 nM,> 1000 nM
"COc1ncc(C2=CCOCC2)c2sc(NC(=O)Nc3ccc(NC(C)=O)c(C)c3)nc12 [Compound 92, N-[4-({[7-(3,6-dihydro-2H-pyran-4-yl)-4-methoxy-[1,3]thiazolo[4,5-c]pyridin-2-yl]carbamoyl}amino)-2-methylphenyl]acetamide]",< 1000 nM,< 10 nM,< 10 nM,< 100 nM
"COc1ncc(C2=CCOCC2)c2sc(NC(=O)Nc3ccc(N4N=C(C)CC4=O)cc3)nc12 [Compound 94, 3-[7-(3,6-dihydro-2H-pyran-4-yl)-4-methoxy-[1,3]thiazolo[4,5-c]pyridin-2-yl]-1-[4-(3-methyl-5-oxo-4,5-dihydro-1H-pyrazol-1-yl)phenyl]urea]",> 1000 nM,< 10 nM,< 100 nM,> 1000 nM
"COc1ncc(C2=CCOCC2)c2sc(NC(=O)Nc3ccc(N4CCOC4=O)cc3)nc12 [Compound 95, 3-[7-(3,6-dihydro-2H-pyran-4-yl)-4-methoxy-[1,3]thiazolo[4,5-c]pyridin-2-yl]-1-[4-(2-oxo-1,3-oxazolidin-3-yl)phenyl]urea]",< 1000 nM,< 10 nM,< 10 nM,< 1000 nM
"COc1nc(F)c(-c2ccccc2)c2sc(NC(=O)C34CC(C(=O)N(C)CCO)(C3)C4)nc12 [Compound 101, Bicyclo[1.1.1]pentane-1,3-dicarboxylic acid (6-fluoro-4-methoxy-7-phenyl-thiazolo[4,5-c]pyridin-2-yl)-amide (2-hydroxy-ethyl)-methyl-amide]",> 1000 nM,< 10 nM,< 100 nM,> 1000 nM
"COCCOCCn1cc(-c2cnc(OC)c3nc(NC(=O)N4CCC5(CCOCC5)C4)sc23)cn1 [Compound 103, 8-Oxa-2-aza-spiro[4.5]decane-2-carboxylic acid (4-methoxy-7-{1-[2-(2-methoxy-ethoxy)-ethyl]-1H-pyrazol-4-yl}-thiazolo[4,5-c]pyridin-2-yl)-amide]",> 1000 nM,< 10 nM,< 100 nM,< 1000 nM
"COc1ncc(C2=CCOCC2)c2sc(NC(=O)N3CCC(C(N)=O)CC3)nc12 [Compound 106, N1-[7-(3,6-dihydro-2H-pyran-4-yl)-4-methoxy-[1,3]thiazolo[4,5-c]pyridin-2-yl]piperidine-1,4-dicarboxamide]",> 1000 nM,< 10 nM,< 100 nM,< 1000 nM
"COc1ncc(C2=CCOCC2)c2sc(NC(=O)N3CCC4(CCOC4)C3)nc12 (stereo not shown) [Compound 108, N-[7-(3,6-dihydro-2H-pyran-4-yl)-4-methoxy-[1,3]thiazolo[4,5-c]pyridin-2-yl]-2-oxa-7-azaspiro[4.4]nonane-7-carboxamide]",> 1000 nM,< 10 nM,< 10 nM,< 1000 nM
"COc1ncc(-c2ccccc2)c2sc(NC(=O)c3ccc(C(=O)O)cc3)nc12 [Compound 109, 4-({4-methoxy-7-phenyl-[1,3]thiazolo[4,5-c]pyridin-2-yl}carbamoyl)benzoic acid]",> 1000 nM,< 10 nM,< 10 nM,> 1000 nM
"COc1ncc(-c2ccccc2)c2sc(NC(=O)c3ccc(-c4nnn[nH]4)cc3)nc12 [Compound 110, N-{4-methoxy-7-phenyl-[1,3]thiazolo[4,5-c]pyridin-2-yl}-4-(1H-1,2,3,4-tetrazol-5-yl)benzamide]",> 1000 nM,< 10 nM,< 100 nM,> 1000 nM
"COc1ncc(C2CCC(F)(F)CC2)c2sc(NC(=O)N3CCC4(CCOCC4)C3)nc12 [Compound 111, 8-Oxa-2-aza-spiro[4.5]decane-2-carboxylic acid [7-(4,4-difluoro-cyclohexyl)-4-methoxy-thiazolo[4,5-c]pyridin-2-yl]-amide]",> 1000 nM,< 10 nM,< 100 nM,< 1000 nM
"COc1ncc(-c2ccc(C)s2)c2sc(NC(=O)N3CCC4(CCOCC4)C3)nc12 [Compound 113, 8-Oxa-2-aza-spiro[4.5]decane-2-carboxylic acid [4-methoxy-7-(5-methyl-thiophen-2-yl)-thiazolo[4,5-c]pyridin-2-yl]-amide]",> 1000 nM,< 10 nM,< 100 nM,> 1000 nM
"COc1ncc(-c2ccc(C)o2)c2sc(NC(=O)N3CCC4(CCOCC4)C3)nc12 [Compound 114, 8-Oxa-2-aza-spiro[4.5]decane-2-carboxylic acid [4-methoxy-7-(5-methyl-furan-2-yl)-thiazolo[4,5-c]pyridin-2-yl]-amide]",> 1000 nM,< 10 nM,< 100 nM,< 1000 nM
"COc1ncc(C2=CCOCC2)c2sc(NC(=O)N3CC[C@@]4(CCCNC4)C3)nc12 [Compound 121, (R)-2,7-Diaza-spiro[4.5]decane-2-carboxylic acid [7-(3,6-dihydro-2H-pyran-4-yl)-4-methoxy-thiazolo[4,5-c]pyridin-2-yl]-amide]",> 1000 nM,< 10 nM,< 100 nM,> 1000 nM
